Test results from US6897203B2, “Polysaccharidic esters of retinoic acid” (priority 2001, dated 2005).

Key:
[1] = system: P19 cells, embryonal pluripotent murine teratocarcinoma cell line; settings: cultured P19 cells; McBurney et al., Nature 1982; cited from earlier work
[2] = system: P19 cells, embryonal pluripotent murine teratocarcinoma cell line; settings: after 4 days of treatment, RT-PCR and RNase protection; for prodynorphin gene expression: P19 indifferentiated cells in suspension; for gene induction of the GATA-4 and Nkx-2.5 genes: P19 indifferentiated cells, follows the prodynorphin increase
Description: The experiments were carried out on P19 cells, embryonal pluripotent murine teratocarcinoma cell line (European Collection of Cell Cultures, UK). These cultured cells indifferentiately proliferate but can be transformed into several cell phenotypes in the presence of differentiating agents, thus selectively summarising the first molecular events that take place during the embryonal growth. […] P19 cells are cultivated in a suspension in alpha-mem medium in 60 mm Petri dishes, either in the absence or in the presence of the hyaluronan esters of the invention. After 4 days of treatment, the total RNA was extracted according to the procedure described by Chomczynsky and Sacchi (Chomczynsky, P., N. Sacchi, Anal. Biochem. 162: 156-159, 1987) and the expression of specific transcripts was evaluated by RT-PCR and RNase protection.

| Compound | differentiation phenotype of P19 cells in the presence of a differentiating agent [1] | prodynorphin gene expression [2] | gene induction of the GATA-4 and Nkx-2.5 genes [2] |
| --- | --- | --- | --- |
| C[S+](C)[O-] [DMSO, dimethylsulphoxide] | turn into myocardial cells supplied with spontaneous contractile activity |  |  |
| CC(C=CC1=C(C)CCCC1(C)C)=CC=CC(C)=CC(=O)O [retinoic acid, 3,7-dimethyl-9-(2,6,6-trimethyl-1-cyclohexene-1-yl)-2,4,6,8-nonatetraenoic acid] | turn into neuronal cells |  |  |
| Ester of Hyaluronan with Trans-Retinoic Acid [Example 4] |  | marked increase | gene induction |
| Hyaluronan Ester with Trans-Retinoic Acid [Example 3] |  | marked increase | gene induction |
